As usually defined, the pEC50 is the EC50 on a negative log10 scale, so that one unit is a factor of ten.

This note sets out measurements from patent US9499550B2 (BRISTOL-MYERS SQUIBB COMPANY, priority 2012, dated 2016).

Assay [1] has as its system HCV genotype 1a (H77 strain) replicon in HUH-7 cells. The experiment in a line: HCV replicon luciferase reporter assay, genotype 1a. Format: cell-based. Conditions: Hepatitis C virus, Huh-7, 72 h, HCV genotype 1a replicon luciferase, 3 days incubation, read-out: LE_1a (EC50, range). In short, it runs like this: (§1)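 Replicon inhibition for both genotypes was measured as Renilla luciferase signal (EnduRen, 7.5 μM final, 2 h) after 3-day, 37° C exposure of replicon-bearing HUH-7 cells in 4% FCS DMEM, 0.5% DMSO. The 1b construct carries S1179I; the 1a H77 construct carries P1496L and S2204I. Twenty-point, 3-fold dilutions were fitted four-parametrically for EC50, and CC50 was taken from multiplexed Cell Titer-Blue.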

The test system of assay [2] is HCV genotype 1b (Con1) replicon in HUH-7 cells. Kind of assay: HCV replicon luciferase reporter assay, genotype 1b. Format: cell-based. To be noted: Hepatitis C virus, Huh-7, 72 h, HCV genotype 1b replicon luciferase, 3 days incubation, read-out: LE_1b (EC50, range). The gist of the method:
as §1
(In general: Replicon systems follow genome replication, usually without infectious particles.)

SMILES strings stand for the structures. pEC50: −log10 of the molar value. Read-outs that look alike come from different tables or passages of the source. Some results are limits rather than exact numbers.

As for `COc1ccc2c(O[C@@H]3C[C@H]4C(=O)N[C@]5(C(=O)NS(=O)(=O)C6(F)CC6)C[C@H]5/C=C\CC[C@@H](C)C[C@@H](C)[C@H](NC(=O)OC5CCCC5)C(=O)N4C3)nccc2c1` [Compound 4019], the pEC50 in assay [1] and in assay [2] was above 8.26 in each case.
Regarding `COc1ccc2c(O[C@@H]3C[C@H]4C(=O)N[C@]5(C(=O)NS(=O)(=O)C6(F)CC6)C[C@H]5/C=C\CC[C@@H](C)C[C@@H](C)[C@H](NC(=O)O[C@H](C)C(F)(F)F)C(=O)N4C3)nccc2c1` [Compound 4020], the pEC50 in assay [1] and in assay [2] was above 8.26 throughout.
On to `COc1ccc2c(O[C@@H]3C[C@H]4C(=O)N[C@]5(C(=O)NS(=O)(=O)C6(F)CC6)C[C@H]5/C=C\CC[C@@H](C)C[C@@H](C)[C@H](NC(=O)OCC(C)(C)C)C(=O)N4C3)nccc2c1` [Compound 4022], for which the pEC50 in assay [1] and in assay [2] was above 8.26 in each case.
As for `COc1cc2ccnc(O[C@@H]3C[C@H]4C(=O)N[C@]5(C(=O)NS(=O)(=O)C6(F)CC6)C[C@H]5/C=C\CC[C@@H](C)C[C@@H](C)[C@H](NC(=O)OC(C)(C)C)C(=O)N4C3)c2cc1Cl` [Compound 4024, tert-butyl (2R,6S,7R,9R,13aS,14aR,16aS,Z)-2-(7-chloro-6-methoxyisoquinolin-1-yloxy)-14a-(1-fluorocyclopropylsulfonylcarbamoyl)-7,9-dimethyl-5,16-dioxo-1,2,3,5,6,7,8,9,10,11,13a,14,14a,15,16,16a-hexadecahydrocyclopropa[e]pyrrolo[1,2-a][1,4]diazacyclopentadecin-6-ylcarbamate], the pEC50 in assay [1] and in assay [2] was above 8.26 in each case.
For `CCOc1cnc(O[C@@H]2C[C@H]3C(=O)N[C@]4(C(=O)NS(=O)(=O)C5CC5)C[C@H]4/C=C\CC[C@@H](C)C[C@@H](C)[C@H](NC(=O)OC(C)(C)C(F)(F)F)C(=O)N3C2)c2cccc(Cl)c12` [Compound 4025], the pEC50 in assay [1] and in assay [2] was above 8.26 each time.
On to `COc1ccc2c(O[C@@H]3C[C@H]4C(=O)N[C@]5(C(=O)NS(=O)(=O)C6CC6)C[C@H]5/C=C\CC[C@@H](C)C[C@@H](C)[C@H](NC(=O)OC(C)(C)C)C(=O)N4C3)nc(-c3ccc(OC(C)C)cc3)cc2c1` [Compound 4026, tert-butyl (2R,6S,7R,9R,13aS,14aR,16aS,Z)-14a-(cyclopropylsulfonylcarbamoyl)-2-(3-(4-isopropoxyphenyl)-6-methoxyisoquinolin-1-yloxy)-7,9-dimethyl-5,16-dioxo-1,2,3,5,6,7,8,9,10,11,13a,14,14a,15,16,16a-hexadecahydrocyclopropa[e]pyrrolo[1,2-a][1,4]diazacyclopentadecin-6-ylcarbamate], for which the pEC50 in assay [1] and in assay [2] was above 8.26 throughout.
As for `COc1ccc2c(O[C@@H]3C[C@H]4C(=O)N[C@]5(C(=O)NS(=O)(=O)C6CC6)C[C@H]5/C=C\CC[C@@H](C)C[C@@H](C)[C@H](NC(=O)OC(C)(C)C(F)(F)F)C(=O)N4C3)nc(-c3ccc(OC(C)C)cc3)cc2c1` [Compound 4027], the pEC50 in assay [1] (GETYPE1A) and in assay [2] (GETYPE1B) was above 8.26 in each case.
Consider `COc1ccc2c(O[C@@H]3C[C@H]4C(=O)N[C@]5(C(=O)NS(=O)(=O)C6(F)CC6)C[C@H]5/C=C\CC[C@@H](C)C[C@@H](C)[C@H](NC(=O)OC(C)(C)C(F)(F)F)C(=O)N4C3)ncc(Cl)c2c1` [Compound 4028], for which the pEC50 in assay [1] (GETYPE1A) and in assay [2] (GETYPE1B) was above 8.26 throughout.
With `COc1ccc2c(O[C@@H]3C[C@H]4C(=O)N[C@]5(C(=O)NS(=O)(=O)C6(F)CC6)C[C@H]5/C=C\CC[C@@H](C)C[C@@H](C)[C@H](NC(=O)c5ccccc5F)C(=O)N4C3)nccc2c1` [Compound 4029], the pEC50 in assay [1] and in assay [2] was above 8.26 each time.
As for `C[C@@H]1CC/C=C\[C@@H]2C[C@@]2(C(=O)NS(=O)(=O)C2CC2)NC(=O)[C@@H]2C[C@@H](Oc3ncc(OCC4CC4)c4ccccc34)CN2C(=O)[C@@H](NC(=O)CC(C)(C)C(F)(F)F)[C@H](C)C1` [Compound 4030], the negative logarithm of the EC50 (pEC50) in assay [1] and in assay [2] was above 8.26 throughout.
With `C[C@@H]1CC/C=C\[C@@H]2C[C@@]2(C(=O)NS(=O)(=O)C2CC2)NC(=O)[C@@H]2C[C@@H](Oc3ncc(OC(F)F)c4c(Cl)cccc34)CN2C(=O)[C@@H](NC(=O)CC(C)(C)C(F)(F)F)[C@H](C)C1` [Compound 4031], the pEC50 in assay [1] and in assay [2] was above 8.26 throughout.
Take `COc1ccc2c(O[C@@H]3C[C@H]4C(=O)N[C@]5(C(=O)NS(=O)(=O)C6CC6)C[C@H]5/C=C\CC[C@@H](C)C[C@@H](C)[C@H](NC(=O)OC(C)(C)C)C(=O)N4C3)ncnc2c1` [Compound 4032, tert-butyl (2R,6S,7R,9R,13aS,14aR,16aS,Z)-14a-(cyclopropylsulfonylcarbamoyl)-2-(7-methoxyquinazolin-4-yloxy)-7,9-dimethyl-5,16-dioxo-1,2,3,5,6,7,8,9,10,11,13a,14,14a,15,16,16a-hexadecahydrocyclopropa[e]pyrrolo[1,2-a][1,4]diazacyclopentadecin-6-ylcarbamate]: the pEC50 in assay [1] and in assay [2] was above 8.26 throughout.
Regarding `COc1ccc2c(O[C@@H]3C[C@H]4C(=O)N[C@]5(C(=O)NS(=O)(=O)C6CC6)C[C@H]5/C=C\CC[C@H](C)C[C@@H](C)[C@H](NC(=O)OC(C)(C)C)C(=O)N4C3)ncnc2c1` [Compound 4033, tert-butyl (2R,6S,7R,9S,13aS,14aR,16aS,Z)-14a-(cyclopropylsulfonylcarbamoyl)-2-(7-methoxyquinazolin-4-yloxy)-7,9-dimethyl-5,16-dioxo-1,2,3,5,6,7,8,9,10,11,13a,14,14a,15,16,16a-hexadecahydrocyclopropa[e]pyrrolo[1,2-a][1,4]diazacyclopentadecin-6-ylcarbamate], the pEC50 in assay [1] and in assay [2] was above 8.26 in each case.
Consider `COc1ccc2c(O[C@@H]3C[C@H]4C(=O)N[C@]5(C(=O)NS(=O)(=O)C6CC6)C[C@H]5/C=C\CC[C@@H](C)C[C@@H](C)[C@H](NC(=O)OC(C)(C)C(F)(F)F)C(=O)N4C3)ncnc2c1` [Compound 4034], for which the pEC50 in assay [1] (GETYPE1A) and in assay [2] (GETYPE1B) was above 8.26 throughout.
Turning to `COc1ccc2c(O[C@@H]3C[C@H]4C(=O)N[C@]5(C(=O)NS(=O)(=O)C6(F)CC6)C[C@H]5/C=C\CC[C@@H](C)C[C@@H](C)[C@H](NC(=O)OCC5(C)CC5)C(=O)N4C3)nccc2c1` [Compound 4036], the pEC50 in assay [1] and in assay [2] was above 8.26 each time.
On to `COc1ccc2c(O[C@@H]3C[C@H]4C(=O)N[C@]5(C(=O)NS(=O)(=O)C6(F)CC6)C[C@H]5/C=C\CC[C@@H](C)C[C@@H](C)[C@H](NC(=O)OC5CCCCC5)C(=O)N4C3)nccc2c1` [Compound 4037], for which the pEC50 in assay [1] and in assay [2] was above 8.26 in each case.
As to `COc1ccc2c(O[C@@H]3C[C@H]4C(=O)N[C@]5(C(=O)NS(=O)(=O)C6(F)CC6)C[C@H]5/C=C\CC[C@@H](C)C[C@@H](C)[C@H](NC(=O)OC5C[C@@H]6C[C@@H]6C5)C(=O)N4C3)nccc2c1` (stereo partly shown) [Compound 4038], the pEC50 in assay [1] and in assay [2] was above 8.26 each time.
